Results: patent US20200172911A1, “USP30 INHIBITORS AND METHODS OF USE” (Genentech, Inc., priority 2012, published 2020)

Columns and labels:
Format in all cases: cell-based, human
[1] = tested on: HeLa cells cotransfected with GFP-Parkin; assay: mitochondrial degradation assay / DUB cDNA overexpression screen (Tom20 staining); conditions: CCCP 20 μM, 24 hours
Protocol: To identify regulators of mitophagy, individual cDNAs from a FLAG-tagged DUB library were cotransfected into HeLa cells with GFP-Parkin using Lipofectamine 2000 (Invitrogen) (1:3 DUB-FLAG: GFP-Parkin cDNA ratio). After 24 hours of expression, cells were treated with […] CCCP for 24 hours, and fixed and stained using anti-Tom20 (Santa Cruz Biotechnology), anti-GFP (Aves Labs) and anti-FLAG (Sigma) primary antibodies. Following staining with secondary antibodies, images of random fields were acquired with a Leica SP5 Laser Scanning Confocal Microscope using a 40×/1.25 oil-objective (0.34 μm/pixel resolution, 1 μm confocal z-step size). Percent of GFP-Parkin and FLAG-DUB cotransfected cells containing Tom20 staining was scored blindly.
To identify DUBs that regulate mitochondria clearance, a FLAG-tagged human DUB cDNA library (97 DUBs) was screened in an established mitochondrial degradation assay (Narendra et al., J. Cell Biol., 183: 795-803 (2008)). In this assay, mitochondria depolarization induced by protonophore carbonyl cyanide 3-chlorophenylhydrazone (CCCP, 20 μM, 24 hours) results in marked loss of mitochondria in cultured cells overexpressing Parkin (as measured by staining for mitochondria outer membrane protein marker Tom20). […] Individual FLAG-tagged DUB cDNAs were cotransfected with GFP-Parkin, and their effects on CCCP-induced mitochondrial (Tom20) clearance were measured. […]

[2] = tested on: GFP-Parkin stable cell lines (HEK-293); assay: immunoblot of mitochondrial protein levels during CCCP treatment; conditions: CCCP 5 μM, t=6 h, p<0.01
Protocol: For total lysate experiments, cells were lysed after 24 hours in SDS sample buffer (Invitrogen) containing sample reducing agent (Invitrogen) and boiled at 95° C. for 10 minutes. Total lysates were resolved by SDS-PAGE and analyzed by immunoblotting. For immunoprecipitation experiments, cells were treated with 5 μM MG132 and the indicated concentrations and durations of CCCP at 24 hours (overexpression experiments) or 6 days (knockdown experiments) in 0.5% SDS in Tris-Buffered Saline (10 mM TRIS, 150 mM NaCl, pH 8.0) and boiled at 70° C. for 10 minutes. […] Inputs and anti-HA immunoprecipitates were resolved by SDS-PAGE and analyzed by immunoblotting.
Beyond ubiquitination, does USP30 regulate protein turnover in addition to ubiquitination? […] In contrast to the outer membrane proteins, mitochondrial matrix protein HSP60 and inner membrane protein TIMM8A were unchanged by CCCP within this time frame. Overexpression of USP30 in GFP-Parkin stable cells greatly attenuated or abolished the CCCP-induced depletion of MIRO and Tom20 (FIG. 6G, H). Stabilization by USP30 overexpression appeared to be relatively specific for MIRO and Tom20, since CCCP-induced degradation of other mitochondria membrane proteins (MFN-1, TOM70, VDAC) was unaffected (FIG. 6G, H).

HEK-293 cells = assay: global ubiquitination (K-GG) mass spectrometry, USP30 knockdown; conditions: CCCP 5 μM, 2 hours
Protocol: (§1) To determine Parkin substrates, HEK-293 GFP-Parkin inducible cells were treated with doxycycline for 24 hours, and then treated with 5 μM CCCP or DMSO vehicle control for 2 hours. To determine USP30 substrates, HEK-293T cells were transfected with human USP30 shRNA using Lipofectamine 2000 (Invitrogen) for 6 days, then treated as before. […] Preparation of cellular lysates and immunoprecipitation
To identify Parkin substrates, HEK 293T cells stably expressing inducible GFP-Parkin (human) were induced using doxycycline (1 μg/mL) for 24 hours, then treated with 5 μM CCCP or DMSO vehicle control for 2 hours. To determine USP30 substrates, HEK 293T cells were transfected with human USP30 shRNA using Lipofectamine 2000 (Invitrogen) for 6 days, then treated as above.
Immunoaffinity isolation and mass spectrometry methods were used to enrich and identify K-GG peptides from digested protein lysates as previously described (Xu et al., Nat. Biotech., 28: 868-873 (2010); Kim et al., Mol. Cell, 44: 325-340 (2011)). Cell lysates were prepared in lysis buffer (8M urea 20 mM HEPES pH 8.0 with 1 mM sodium orthovanadate, 2.5 mM sodium pyrophosphate, 1 mM ß-glycerophosphate) by brief sonication on ice. Protein samples (60 mg) were reduced at 60° C. for 20 min in 4.1 mM DTT, cooled 10 min on ice, and alkylated with 9.1 mM iodoacetamide for 15 min at room temperature in the dark. […]

USP30 = USP30 knockdown efficiency in HEK-293 cells
Protocol: as §1
Since Parkin and USP30 antagonistically regulate mitochondrial degradation, it was hypothesized that this E3 ligase and DUB act on some common substrates. To identify Parkin and USP30 substrates, global ubiquitination in cells was analyzed by mass spectrometry (MS) following immunoaffinity enrichment of ubiquitinated peptides from trypsin-digested extracts using the ubiquitin branch-specific (K-GG) antibodies. Global ubiquitination was analyzed and quantified by MS in HEK-293 cells in two different sets of conditions: 1) inducible Parkin overexpression, or 2) USP30 knockdown (USP30 knockdown efficiency was 85±5% (see FIG. 7C)). In each set, cells were treated with CCCP (5 μM, 2 hours) or vehicle control (DMSO).

[3] = tested on: GFP-Parkin expressing stable HEK-293 cells; assay: HA-ubiquitin immunoprecipitation and immunoblot of MIRO and Tom20; conditions: HA-ubiquitin immunoprecipitates, CCCP 5 μM, 2 hours
Protocol: For total lysate experiments, transfected HEK-293 cells were lysed at 24 hours post-transfection in SDS sample buffer (Invitrogen) containing sample reducing agent (Invitrogen). For immunoprecipitation experiments, cells were lysed at 24 hours (overexpression experiments) or 6 days (knockdown experiments) post-transfection in TBS buffer containing 0.5% SDS, and lysates were diluted with a buffer containing 1% Triton-X-100 and protease and phosphatase inhibitors. Ubiquitinated proteins were immunoprecipated from lysates of HA-ubiquitin transfected cells with anti-HA affinity matrix beads (Roche Applied Science). Inputs and precipitates were resolved by SDS-PAGE and analyzed by immunoblotting.
For total lysate experiments, cells were lysed after 24 hours in SDS sample buffer (Invitrogen) containing sample reducing agent (Invitrogen) and boiled at 95° C. for 10 minutes. Total lysates were resolved by SDS-PAGE and analyzed by immunoblotting. For immunoprecipitation experiments, cells were treated with 5 μM MG132 and the indicated concentrations and durations of CCCP at 24 hours (overexpression experiments) or 6 days (knockdown experiments) in 0.5% SDS in Tris-Buffered Saline (10 mM TRIS, 150 mM NaCl, pH 8.0) and boiled at 70° C. for 10 minutes. […] Inputs and anti-HA immunoprecipitates were resolved by SDS-PAGE and analyzed by immunoblotting. […]

Compound | Parkin-transfected cells lacking Tom20 staining [1] [%] | decrease in Tom20 protein level [2] | USP30 shRNA+CCCP/CCCP ubiquitination ratio for Tom20 (HEK-293 cells; p=0.005) | USP30 shRNA+CCCP/CCCP ubiquitination ratio for MIRO (HEK-293 cells; p=0.019) | USP30 knockdown efficiency (USP30) [%] | increase in level of ubiquitinated MIRO [3] [fold]
N#CC(C#N)=NNc1cccc(Cl)c1 [CCCP, carbonyl cyanide 3-chlorophenylhydrazone] | > 80 | 10+/−1% |  |  |  | 
CCAGAGTCCTGTTCGATTT ((CCAGAGTCCTGTTCGATTT; as printed in the source, key not given here) [human USP30 shRNA] |  |  | 3.52 | 2.95 | 85±5 | ~2.5
